Measurements: patent publication US11214835B1, “Methods and compositions for diagnosis and management of neurodegerative diseases” (UNIVERSITY OF SOUTH FLORIDA, priority 2017, dated 2022)

Experiments:
[1] = tested on: GAS5; assay: GAS5 levels in DM adipocytes by SYBR Green qPCR; format: cell-based, human; conditions: 20 nM, 24 hours
Protocol: DM adipocytes were treated with G5-1397 (20 nM) for about 24 hours. GAS5 levels were measured using SYBR Green qPCR.
Depletion of GAS5 decreases glucose uptake: Adipose tissue is the primary target for insulin-mediated glucose uptake. […] To maintain reproducibility over a larger number of experiments, adipose stem cells derived from normal or diabetic patients were purchased from Zenbio (BMI 20-24, Nondiabetic HbA1C 5.9 (hereafter referred as NDM); T2DM HbA1c 8.5 (hereafter referred as DM)). The adipose stem cells (ASC) were differentiated in vitro to mature adipocytes and used in experiments. GAS5 siRNA (10 nM, Ambion 332778, validated; scrambled siRNA as control) was transfected in NDM pre-adipocytes for 48 h, differentiated to mature NDM adipocytes for 8 days and knockdown confirmed by GAS5 SYBR Green qPCR. We determined the effect of GAS5 depletion on glucose uptake by NDM adipocytes. Cells were serum starved, 10 nM insulin was added to cells for 30 minutes and [^3H]-deoxy-2-D-Glucose uptake was measured. Results indicated a decrease in glucose uptake in GAS5 depleted NDM adipocytes ***p<0.001, highly significant using two-tailed students t-test.
Compound NPG5-C86 can increase GAS5 levels in diabetic adipocytes: Next, it was evaluated whether NPG5-C86 could stabilize GAS5 in diabetic adipocytes. […] GAS5 levels were measured using SYBR Green qPCR.

[2] = tested on: GAS5; assay: Hippocampal GAS5 levels after intranasal administration to C57BL/6 mice; format: in vivo, mouse; conditions: 10 nM in 10 μl, about 48 h
Source text: (§1) Separately, NPG567 or other compounds can be administered by intranasal delivery (APP/PS1 beginning at either 6 months of age (preventive) or 12 months of age (therapeutic); dose repeated alternate days; Tg4510 beginning at either 3 months of age (preventive) or 8 months of age (therapeutic); alternate days. See FIG. 25B for a schematic of the experimental protocol. The treatment efficacy for the two modes of delivery at timeframes as shown in FIGS. 25A and 25B and described herein. Intranasal delivery is a noninvasive method that bypasses the blood-brain barrier and delivers the drug to the brain and the spinal cord, thereby avoiding any systemic side effects. […] Brain tissue was harvested after about 48 h.

[3] = tested on: C57BL/6 mice; assay: Intranasal administration to C57BL/6 mice: brain uptake and toxicity; format: in vivo, mouse; conditions: 10 nM in 10 μl
Protocol: Brain tissue was harvested after about 48 h.
as §1

CC(C)C[C@H]1CN(C(=O)CC2CC2)CC(=O)N[C@@H](CCCCN)CN(C(=O)CCc2ccccc2)CC(=O)N[C@@H](Cc2ccccc2)CN(CC(N)=O)C(=O)CCSCc2ccc(cc2)C(=O)N[C@@H](Cc2ccccc2)CN(C(=O)CC2CC2)CC(=O)N1 [Formula G5-1397]
GAS5 levels in DM adipocytes [1]: substantially increases GAS5 levels

NCCCC[C@H]1CN(C(=O)CCc2ccccc2)CC(=O)N[C@@H](CCC(=O)O)CN(CC(N)=O)C(=O)CCSCc2ccc(cc2)C(=O)N[C@@H](CCC(=O)O)CN(C(=O)CCC(=O)O)CC(=O)N[C@@H](CCCCN)CN(C(=O)CCCN)CC(=O)N1 [NPG567]
GAS5 levels in the hippocampus [2]: increased GAS5 levels in the hippocampus | toxicity to the animals ([3]; C57BL/6 mice): not toxic to the animals | blood-brain barrier crossing and brain uptake ([3]; fluorescein-labeled, 14 week C57BL/6 mice, brain harvested after about 48 h): crossed the blood-brain barrier and taken up by the brain
